{
  "source": "patent US20260191999A1",
  "about": "“COMPOUNDS AND THEIR USE” (KING'S COLLEGE LONDON, priority 2022, published 2026)",
  "key": {"[1]": {"tested_on": "SKOV3-TRip2 and SKOV3-ip1 cells", "test": "Cell uptake of radiotracer, drug-resistant vs drug-sensitive SKOV3 cells", "format": "cell-based, human", "experimental": "For cell uptake studies SKOV3-ip1 and SKOV3-TRip2, A549-WT, A549-KO-ALDH1A1, HEK293-WT and HEK293-ALDH1A1 cells were plated in 6 well plates 24 h prior to the studies, as described above (Western Blotting). One mL of fresh media containing 0.37 MBq of PQM-H-001 and 6 KBq PQM-H-002 was added to each well for the desired incubation time. At 40 min, plates were placed on ice, washed three times with ice-cold PBS to remove exogenous radioactivity and lysed in RIPA buffer ([…]; Fisher Scientific Ltd).\nFor all cell uptake and efflux study decay-corrected radioactivity in lysates was determined on a gamma counter ([…]; Wallac 1282 CompuGamma counter), with the remaining cell lysate centrifuged (21,000×g for 10 min at 4° C.) and the supernatant used to determine protein concentration following radioactive decay using a Pierce BCA assay. To quantify radiotracer uptake in cells, three standard solutions of the radioactivity-containing medium were counted on the gamma counter. Data were expressed as a percentage of total radioactivity administered to cells per mg of protein.\nNext, the time-dependent uptake of the of the radiotracers PQM-H-001 ([^18F]PQM-H-001) and PQM-H-002 ([^125I]PQM-H-002) was profiled in drug-resistant SKOV3-Trip2 and drug-sensitive SKOV3-ip1 cell lines (Pereira, R., et al. 2019)."}, "[2]": {"tested_on": "SKOV3-TRip2 and SKOV3-ip1 subcutaneous tumours", "test": "In vivo tumour model and PET imaging", "parameters": "species or system Balb/c nu/nu mice", "experimental": "All animal experiments were performed in accordance with the United Kingdom Home Office Animal (scientific procedures) Act […]. […] SKOV3-ip1 and 4×10^6 and SKOV3-TRip2 cells were injected subcutaneously into female Balb/c nu/nu mice aged 6-9 weeks (Charles River Laboratories). Tumour dimensions were measured using an electronic calliper and the volume calculated using the following equation: volume=((π/6)×h×w×l), where h, w and l represent, height, width, and length, respectively. Imaging studies took place when tumour size reached approximately 150-250 mm^3. Mice were anaesthetized with isoflurane (2.5% in oxygen) and maintained at 37° C. using an air-heated scanning bed. A tail vein cannula was inserted and a 3.7 MBq bolus of PQM-H-001 was administered in approximately 100 μL of PBS. Immediately following injection, 120 min PET acquisition was performed on a Mediso nanoScan PET/CT system. […] Reconstructed images (Tera-Tomo 3D reconstruction algorithm; 4 iterations; 6 subsets; 400-600 keV; 0.4 mm voxel size) were analysed using VivoQuant software (v. 2.5, Invicro Ltd.). Regions of interest (ROIs) were drawn manually on the CT images and the radioactivity concentration in each ROI expressed as a percentage of the injected dose per mL of tissue volume (% ID/mL)."}, "Ex vivo biodistribution": {"test": "Ex vivo biodistribution", "format": "in vivo, BALB/c-nu/nu mice", "settings": "90 min post radiotracer injection", "experimental": "PQM-H-001 distribution was further evaluated ex vivo 90 min post radiotracer injection. […] Ex-vivo distribution of PQM-H-001 was performed after PET imaging (section: In Vivo Tumour Model and PET Imaging) by sacrificing all mice at time point 120 min post injection. Blood, tumour, and major organs and tissues were collected, wet-weighed, and counted using an automated y-counter (Wallac 1282 CompuGamma g counter). The concentrations of radioactivity in blood, tumor, and organs and tissues were determined as percentage injected of total radioactivity per gram (% ID/g)."}, "SKOV3-ip1 cells": {"tested_on": "SKOV3-ip1 cells", "test": "Cisplatin-induced growth inhibition, MTT assay, SKOV3-ip1", "format": "cell-based, human", "settings": "MTT assay 72 h post treatment; second value of 'respectively' pair (SKOV3-ip1 as printed)", "experimental": "FIG. 1a: Graph showing cisplatin-induced growth inhibition in SKOV3-ip1 cells (white circles) and SKOV3-TRip2 cells (filled squares) using an MTT assay 72 h post treatment (n=3-5).\nThe SKOV3-TRip2 cell line was generated through progressive exposure to paclitaxel (Duan et al., 1999) whereas the SKOV3-ip1 cell line remained untreated."}},
  "data": [
    {"smiles": "CS(=O)(=O)N1CCN(C(=O)c2cnc3ccc([18F])cc3c2-c2ccc(C3(C#N)CC3)cc2)CC1", "note": "[PQM-H-001, 1-(4-(6-(fluoro-^18F)-3-(4-(methylsulfonyl)piperazine-1-carbonyl)quinolin-4-yl)phenyl)cyclopropane-1-carbonitrile]", "values": [
      {"measurement": "Radiotracer retention, drug resistant versus drug-sensitive cells", "setting": "[1]", "value": 9, "unit": "times higher"},
      {"measurement": "Retention in treatment resistant SKOV3-TRip2 tumours compared to SKOV3-ip1 tumours", "setting": "[2]; PET, subcutaneous tumours, 3.7 MBq i.v. bolus", "value": "> 5", "unit": "×"},
      {"measurement": "identification of drug resistant tumours in vivo (in words)", "setting": "[2]; PET/CT imaging", "value": "can non-invasively identify drug resistant tumours in vivo"},
      {"measurement": "radiotracer retention in drug-resistant vs drug-sensitive tumours (in words)", "setting": "Ex vivo biodistribution", "value": "substantially increased in the drug-resistant tumours compared to drug-sensitive tumours"},
      {"measurement": "radiotracer retention in healthy tissues (in words)", "setting": "Ex vivo biodistribution", "value": "Low radiotracer retention was observed in most healthy tissues, except the liver"},
      {"measurement": "route of excretion (in words)", "setting": "Ex vivo biodistribution", "value": "excretion occurring via the urinary and hepatobiliary tract"}
    ]},
    {"smiles": "N.N.[Cl][Pt][Cl]", "note": "[cisplatin]", "values": [
      {"measurement": "EC50", "setting": "SKOV3-ip1 cells", "value": 2.6, "unit": "µM"}
    ]}
  ]
}
